Results reported in patent US20240287062A1, “NAPHTHYRIDONE COMPOUNDS FOR INHIBITION OF RAF KINASES AND/OR BCR-ABL TYROSINE KINASES” (Enliven Inc., priority 2021, published 2024).

Biological target: PDGFRα (Homo sapiens (Human), UniProt P16234)
Assay: Luminescence-based PDGFRα kinase assay (Km ATP), ADP-Glo
Type: biochemical
Conditions: compound at 100 nM concentration
Method: Kinase activity of PDGFRα was measured using the ADP-Glo system (Promega). Compounds were diluted in DMSO at 100 μM. 20 nL of compound or DMSO only (high control, HC) were added to a 384-well plate (OptiPlate-384, PerkinElmer) using an Echo550 liquid handler (Labcyte). 15 μL of kinase solution (10 mM MgCl2, 0.01% Brij-35, 2 mM DTT, 0.05% BSA, 1 mM EGTA, 50 mM HEPES pH 7.5, and 13.3 nM PDGFRα [Carna Biosciences]) were added to each well of the 384-well plate containing the compounds. No enzyme control wells were included (low control, LC). The plate was incubated at room temperature for 30 minutes. 5 μL of a second solution containing 10 mM MgCl2, 0.01% Brij-35, 2 mM DTT, 0.05% BSA, 1 mM EGTA, 50 mM HEPES pH 7.5, 0.8 μg/ml Poly(Glu-Tyr) (Sigma, Cat No 97105-00-5), and 120 μM ATP were added to each well to start the kinase reaction. The plate was incubated for 90 minutes at room temperature. 20 μL of ADP-Glo reagent (Promega) were then added to each well and the plate was incubated for 40 minutes at room temperature. […] During this step, ADP was converted to ATP, a substrate for luciferase, to produce luminescence signal. Luminescence was measured on an Envision plate reader (Perkin Elmer). Luminescence signal positively correlates with kinase activity. The percent inhibition of kinase activity was calculated as follows: percent inhibition=100×(LumHC−LumSample)/(LumHC−LumLC). […]

PDGFRα, sequence (P16234 24-1089): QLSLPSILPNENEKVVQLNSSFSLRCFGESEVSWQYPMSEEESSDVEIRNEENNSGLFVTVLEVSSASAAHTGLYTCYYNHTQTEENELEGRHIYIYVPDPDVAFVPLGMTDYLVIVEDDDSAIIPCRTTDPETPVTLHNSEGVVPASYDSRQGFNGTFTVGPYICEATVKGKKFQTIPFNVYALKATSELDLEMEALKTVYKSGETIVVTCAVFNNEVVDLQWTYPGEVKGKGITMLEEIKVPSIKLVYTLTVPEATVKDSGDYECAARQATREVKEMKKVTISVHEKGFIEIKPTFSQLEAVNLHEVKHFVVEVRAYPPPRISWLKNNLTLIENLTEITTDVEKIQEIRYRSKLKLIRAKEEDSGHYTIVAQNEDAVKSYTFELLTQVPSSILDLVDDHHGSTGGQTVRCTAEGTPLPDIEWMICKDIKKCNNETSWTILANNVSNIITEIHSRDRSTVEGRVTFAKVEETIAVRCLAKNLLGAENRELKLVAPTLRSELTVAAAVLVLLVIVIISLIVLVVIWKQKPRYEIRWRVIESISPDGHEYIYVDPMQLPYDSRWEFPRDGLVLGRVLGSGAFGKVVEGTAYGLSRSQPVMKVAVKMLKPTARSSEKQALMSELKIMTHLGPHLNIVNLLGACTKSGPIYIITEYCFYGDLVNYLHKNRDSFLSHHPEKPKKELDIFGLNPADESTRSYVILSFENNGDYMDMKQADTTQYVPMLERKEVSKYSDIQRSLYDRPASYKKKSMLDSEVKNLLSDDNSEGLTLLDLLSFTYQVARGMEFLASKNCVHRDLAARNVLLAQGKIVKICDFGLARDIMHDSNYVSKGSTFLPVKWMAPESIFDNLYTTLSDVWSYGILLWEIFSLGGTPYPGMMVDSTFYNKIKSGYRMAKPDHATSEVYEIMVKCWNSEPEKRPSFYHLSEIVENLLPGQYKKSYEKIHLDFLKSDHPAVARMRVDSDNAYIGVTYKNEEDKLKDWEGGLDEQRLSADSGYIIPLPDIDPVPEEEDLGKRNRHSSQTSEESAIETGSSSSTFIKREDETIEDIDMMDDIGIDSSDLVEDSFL

Compound | inhibition at 0.1 µM
Cc1c(F)cncc1-c1cc2cnc(NC(=O)C3CC3)cc2n(C)c1=O [Compound 2, N-[3-(5-fluoro-4-methylpyridin-3-yl)-1-methyl-2-oxo-1,6-naphthyridin-7-yl]cyclopropanecarboxamide] | 33%
Cc1c(F)cncc1-c1cc2cnc(NC(=O)[C@@H]3C[C@@H]3F)cc2n(C)c1=O [Compound 28, (1S,2S)-2-fluoro-N-[3-(5-fluoro-4-methylpyridin-3-yl)-1-methyl-2-oxo-1,6-naphthyridin-7-yl]cyclopropane-1-carboxamide] | 15%
